Measured values from patent US8258114B2, “Modulation of glucose-6-phosphatase translocase expression” (Isis Pharmaceuticals, Inc., priority 2004, dated 2012).
Oligonucleotides are written 5' to 3', each unit as a sugar letter and its base; * is a phosphorothioate linkage, no mark a phosphodiester; rarer units and linkages stand in square brackets, end groups in braces. Plain capitals give the bases only. e = 2'-O-(2-methoxyethyl) (MOE); [5mC] = 5-methylcytosine; d = 2'-deoxy (DNA)

What follows are substances tested on mouse glucose-6-phosphatase translocase mRNA (assay: Antisense inhibition of mouse glucose-6-phosphatase translocase mRNA in primary mouse hepatocytes, 150 nM, LIPOFECTIN (Table 22)). Details: real-time PCR.
Assay type: cell-based
Method: Primary mouse hepatocytes were prepared from CD-1 mice purchased from Charles River Labs. Primary mouse hepatocytes were routinely cultured in Hepatocyte Attachment Media supplemented with 10% fetal bovine serum (Invitrogen Life Technologies, Carlsbad, Calif.), 250 nM dexamethasone, and 10 nM bovine insulin (Sigma-Aldrich, St. Louis, Mo.). Cells were seeded into 96-well plates (Falcon-Primaria #353872, BD Biosciences, Bedford, Mass.) at a density of approximately 4,000-6,000 cells/well for use in oligomeric compound transfection experiments.
When cells reached 65-75% confluency, they were treated with oligonucleotide. Oligonucleotide was mixed with LIPOFECTIN™ Invitrogen Life Technologies, Carlsbad, Calif.) in Opti-MEM™-1 reduced serum medium (Invitrogen Life Technologies, Carlsbad, Calif.) to achieve the desired concentration of oligonucleotide and a LIPOFECTIN™ concentration of 2.5 or 3 μg/mL per 100 nM oligonucleotide. This transfection mixture was incubated at room temperature for approximately 0.5 hours. For cells grown in 96-well plates, wells were washed once with 100 μL OPTI-MEM™-1 and then treated with 130 μL of the transfection mixture. Cells grown in 24-well plates or other standard tissue culture plates are treated similarly, using appropriate volumes of medium and oligonucleotide. Cells are treated and data are obtained in duplicate or triplicate. After approximately 4-7 hours of treatment at 37° C., the medium containing the transfection mixture was replaced with fresh culture medium. Cells were harvested 16-24 hours after oligonucleotide treatment.
Quantitation of glucose 6-phosphatase translocase mRNA levels was accomplished by real-time quantitative PCR using the ABI PRISM™ 7600, 7700, or 7900 Sequence Detection System (PE-Applied Biosystems, Foster City, Calif.) according to manufacturer's instructions.
Prior to quantitative PCR analysis, primer-probe sets specific to the target gene being measured were evaluated for their ability to be “multiplexed” with a GAPDH amplification reaction. After isolation the RNA is subjected to sequential reverse transcriptase (RT) reaction and real-time PCR, both of which are performed in the same well. RT and PCR reagents were obtained from Invitrogen Life Technologies (Carlsbad, Calif.). […] The RT reaction was carried out by incubation for 30 minutes at 48° C. Following a 10 minute incubation at 95° C. to activate the PLATINUM® Taq, 40 cycles of a two-step PCR protocol were carried out: 95° C. for 15 seconds (denaturation) followed by 60° C. for 1.5 minutes (annealing/extension).
Gene target quantities obtained by RT, real-time PCR were normalized using either the expression level of GAPDH, a gene whose expression is constant, or by quantifying total RNA using RiboGreen™ (Molecular Probes, Inc. Eugene, Oreg.). GAPDH expression was quantified by RT, real-time PCR, by being run simultaneously with the target, multiplexing, or separately. Total RNA was quantified using RiboGreen™ RNA quantification reagent (Molecular Probes, Inc. Eugene, Oreg.).
A series of oligomeric compounds was designed to target different regions of mouse glucose-6-phosphatase translocase, using published sequences cited in Table 1. All compounds in Table 22 are chimeric oligonucleotides (“gapmers”) 20 nucleotides in length, composed of a central “gap” region consisting of 10 2′-deoxynucleotides, which is flanked on both sides (5′ and 3′) by five-nucleotide “wings”. The wings are composed of 2′-O-(2-methoxyethyl) nucleotides, also known as 2′-MOE nucleotides. The internucleoside (backbone) linkages are phosphorothioate throughout the oligonucleotide. All cytidine residues are 5-methylcytidines. The compounds were analyzed for their effect on gene target mRNA levels by quantitative real-time PCR as described in other examples herein, using the following primer-probe set designed to hybridize to mouse glucose-6-phosphatase translocase: • forward primer: […]

| Substance | % Inhib of mouse glucose-6-phosphatase translocase mRNA levels |
| --- | --- |
| 145647 (antisense e[5mC]*eT*e[5mC]*eT*eT*dG*dA*d[5mC]*dT*dG*d[5mC]*dT*d[5mC]*d[5mC]*dT*eG*e[5mC]*eT*eT*eG) [compound 145647] | 52% |
| 145648 (antisense e[5mC]*eT*eT*e[5mC]*eT*dG*dA*d[5mC]*d[5mC]*dA*d[5mC]*dA*dG*dA*d[5mC]*eT*e[5mC]*eT*eT*eG) [compound 145648] | 26% |
| 145649 (antisense eG*e[5mC]*e[5mC]*e[5mC]*eA*d[5mC]*dT*d[5mC]*d[5mC]*dA*dG*dT*dA*d[5mC]*dT*eT*e[5mC]*eT*eG*eA) [compound 145649] | 61% |
| 145650 (antisense eA*eA*eG*e[5mC]*eT*dG*dG*d[5mC]*d[5mC]*d[5mC]*dT*dG*d[5mC]*dT*dG*eG*e[5mC]*e[5mC]*e[5mC]*eA) [compound 145650] | 54% |
| 145651 (antisense eG*eT*eA*eG*eA*dA*dA*dA*dA*dG*d[5mC]*dT*dG*dG*d[5mC]*e[5mC]*e[5mC]*eT*eG*e[5mC]) [compound 145651] | 31% |
| 145653 (antisense eT*eT*eG*eG*eG*d[5mC]*dT*dG*d[5mC]*d[5mC]*dA*dT*dG*dG*dT*eA*eG*eA*eA*eA) [compound 145653] | 42% |
| 145654 (antisense eA*eG*eT*eG*e[5mC]*dG*dA*dT*dA*dG*dT*dA*dG*d[5mC]*d[5mC]*eG*eT*eA*eG*e[5mC]) [compound 145654] | 47% |
| 145655 (antisense eA*eA*e[5mC]*eA*eT*dG*dG*d[5mC]*d[5mC]*dG*d[5mC]*dA*dA*dA*dT*eA*eT*eG*eA*e[5mC]) [compound 145655] | 29% |
| 145656 (antisense eT*eA*e[5mC]*eA*eG*dG*d[5mC]*dT*dG*dT*dA*dG*d[5mC]*d[5mC]*dT*e[5mC]*e[5mC]*eA*eA*eA) [compound 145656] | 47% |
| 145658 (antisense eT*eG*eG*eT*e[5mC]*dT*dG*dA*d[5mC]*dA*dG*dA*dA*d[5mC]*d[5mC]*e[5mC]*e[5mC]*eG*e[5mC]*eT) [compound 145658] | 36% |
| 145659 (antisense e[5mC]*eG*e[5mC]*eT*e[5mC]*dA*dT*d[5mC]*dT*dG*dG*dT*d[5mC]*dT*dG*eA*e[5mC]*eA*eG*eA) [compound 145659] | 15% |
| 145660 (antisense eT*eG*eT*eG*eG*dA*dG*d[5mC]*dT*d[5mC]*d[5mC]*dA*dT*dG*dA*eG*eA*eA*eG*eA) [compound 145660] | 40% |
| 145661 (antisense eA*e[5mC]*e[5mC]*eA*eA*dG*dG*dA*dG*d[5mC]*dA*dG*d[5mC]*dA*dA*eA*eG*eG*e[5mC]*eT) [compound 145661] | 25% |
| 145663 (antisense eT*eT*eG*eA*e[5mC]*dA*dA*d[5mC]*dA*d[5mC]*dA*dG*d[5mC]*d[5mC]*d[5mC]*eA*e[5mC]*e[5mC]*eA*eA) [compound 145663] | 48% |
| 145665 (antisense e[5mC]*e[5mC]*eA*eG*e[5mC]*d[5mC]*dA*dG*dG*dT*dT*d[5mC]*dA*dT*dG*e[5mC]*eT*eG*eG*eT) [compound 145665] | 22% |
| 145666 (antisense eA*eA*eG*eA*eT*dA*dG*dG*dT*d[5mC]*d[5mC]*d[5mC]*dA*dA*dA*e[5mC]*eT*eT*e[5mC]*e[5mC]) [compound 145666] | 28% |
| 145669 (antisense e[5mC]*eA*e[5mC]*eA*eG*dT*dG*d[5mC]*d[5mC]*d[5mC]*d[5mC]*dA*dG*dA*d[5mC]*eA*eG*eG*eG*e[5mC]) [compound 145669] | 9% |

| Substance | % Inhib of mouse glucose-6-phosphatase translocase mRNA levels |
| --- | --- |
| 145672 (antisense eT*eG*eT*eG*eG*dA*dT*dG*dA*dG*d[5mC]*dA*dG*d[5mC]*dA*eG*eA*e[5mC]*eA*eG) [compound 145672] | 8% |
| 145674 (antisense e[5mC]*eA*eG*e[5mC]*eA*dG*dG*dT*dT*d[5mC]*dA*dT*dT*dG*dT*eG*eG*eA*eT*eG) [compound 145674] | 43% |
| 145675 (antisense eA*eA*e[5mC]*eA*eT*d[5mC]*dA*dG*d[5mC]*dA*dG*dG*dT*dT*d[5mC]*eA*eT*eT*eG*eT) [compound 145675] | 23% |
| 145676 (antisense GAGTCCAACATCAGCAGGTTCA; 2'-MOE gapmer, further chemistry not given here) [compound 145676] | 51% |
| 145677 (antisense e[5mC]*eT*eT*e[5mC]*eT*dT*dG*d[5mC]*d[5mC]*d[5mC]*dT*d[5mC]*dA*dG*dA*eG*eG*eG*e[5mC]*eA) [compound 145677] | 9% |
| 145678 (antisense eG*eA*eG*e[5mC]*e[5mC]*d[5mC]*dT*dT*d[5mC]*dT*dT*dG*d[5mC]*d[5mC]*d[5mC]*eT*e[5mC]*eA*eG*eA) [compound 145678] | 60% |
| 145679 (antisense eT*e[5mC]*eA*eA*eG*dG*dA*dG*d[5mC]*d[5mC]*d[5mC]*dT*dT*d[5mC]*dT*eT*eG*e[5mC]*e[5mC]*e[5mC]) [compound 145679] | 17% |
| 145680 (antisense e[5mC]*eT*e[5mC]*e[5mC]*eT*dT*d[5mC]*dA*dA*dG*dG*dA*dG*d[5mC]*d[5mC]*e[5mC]*eT*eT*e[5mC]*eT) [compound 145680] | 0% |
| 145681 (antisense e[5mC]*eT*e[5mC]*eT*e[5mC]*d[5mC]*dT*d[5mC]*d[5mC]*dT*dT*d[5mC]*dA*dA*dG*eG*eA*eG*e[5mC]*e[5mC]) [compound 145681] | 36% |
| 145682 (antisense eG*eG*eG*eT*eG*d[5mC]*dT*d[5mC]*dT*d[5mC]*d[5mC]*dT*d[5mC]*d[5mC]*dT*eT*e[5mC]*eA*eA*eG) [compound 145682] | 31% |
| 145683 (antisense e[5mC]*eA*eG*e[5mC]*eT*d[5mC]*d[5mC]*dT*dG*dT*dA*dG*dG*dG*dT*eG*e[5mC]*eT*e[5mC]*eT) [compound 145683] | 0% |
| 145684 (antisense eT*e[5mC]*eT*eT*eT*dA*d[5mC]*dT*d[5mC]*d[5mC]*dG*dA*dA*dG*dA*e[5mC]*e[5mC]*eA*e[5mC]*eA) [compound 145684] | 43% |
| 145687 (antisense e[5mC]*eT*e[5mC]*e[5mC]*eT*dG*dG*dA*dT*dA*dA*dG*dG*dA*dA*eG*eA*eA*e[5mC]*eT) [compound 145687] | 12% |
| 145688 (antisense eA*e[5mC]*eT*eG*e[5mC]*d[5mC]*d[5mC]*dT*d[5mC]*dT*d[5mC]*dT*d[5mC]*d[5mC]*dT*eG*eG*eA*eT*eA) [compound 145688] | 25% |
| 145689 (antisense e[5mC]*eA*eA*eG*eG*dG*d[5mC]*dG*dG*dA*d[5mC]*dT*dG*d[5mC]*d[5mC]*e[5mC]*eT*e[5mC]*eT*e[5mC]) [compound 145689] | 34% |
| 145690 (antisense e[5mC]*eT*e[5mC]*e[5mC]*eG*dA*d[5mC]*d[5mC]*dT*d[5mC]*dG*dA*dG*dG*dG*e[5mC]*eA*e[5mC]*eT*eG) [compound 145690] | 56% |
